Source: ChEMBL document CHEMBL3352299, “Antiproliferative 4-(1,2,4-oxadiazol-5-yl)piperidine-1-carboxamides, a new tubulin inhibitor chemotype” (Bioorg Med Chem Lett, 2014)

Key:
[1] = test system: K562; assay: Induction of mitotic arrest in human K562 cells assessed as mitotic indices at 100 uM by light microscopy; assay type: functional
[2] = test system: MCF7; assay: Antiproliferative activity against human MCF7 cells after 3 days by fluorescence assay; assay type: functional; conditions: MCF7, 72 h
[3] = Antiproliferative activity against human OVCAR3 cells after 3 days by fluorescence assay; assay type: functional; conditions: OVCAR-3, 72 h
[4] = test system: DU-145; assay: (§1) Antiproliferative activity against human DU145 cells after 3 days by fluorescence assay; assay type: functional; conditions: DU-145, 72 h
[5] = test system: A498; assay: Antiproliferative activity against human A498 cells after 3 days by fluorescence assay; assay type: functional; conditions: A498, 72 h
[6] = Antiproliferative activity against human HCC2998 cells after 3 days by fluorescence assay; assay type: functional; conditions: HCC 2998, 72 h
[7] = test system: SR; assay: Antiproliferative activity against human SR cells after 3 days by fluorescence assay; assay type: functional; conditions: 72 h
[8] = Antiproliferative activity against human SF539 cells after 3 days by fluorescence assay; assay type: functional; conditions: SF-539, 72 h
[9] = test system: HT-29; assay: Antiproliferative activity against human HT-29 cells after 3 days by fluorescence assay; assay type: functional; conditions: HT-29, 72 h
[10] = Antiproliferative activity against human HOP92 cells after 3 days by fluorescence assay; assay type: functional; conditions: HOP-92, 72 h
[11] = Antiproliferative activity against human HCT15 cells after 3 days by fluorescence assay; assay type: functional; conditions: HCT-15, 72 h
[12] = target: T1, Tubulin (Homo sapiens) (UniProt P68371+Q9H4B7+P0DPH7+P68366+Q13509+Q71U36+P04350+Q3ZCM7+P07437+P68363+Q9BQE3+Q6PEY2+Q13885+Q9BVA1+Q9BUF5); assay: Displacement of [3H]-colchicine from tubulin (unknown origin) at 1 uM after 10 mins by turbidimetrically relative to control; assay type: protein-complex assay
[13] = Antiproliferative activity against human UO31 cells after 3 days by fluorescence assay; assay type: functional; conditions: UO-31, 72 h
[14] = target: Tubulin; assay: Displacement of [3H]-colchicine from tubulin (unknown origin) after 10 mins by turbidimetrically; assay type: protein-complex assay, Homo sapiens
[15] = test system: A549; assay: Antiproliferative activity against human A549 cells after 3 days by fluorescence assay; assay type: functional; conditions: A549, 72 h
[16] = target: T1, Tubulin (Homo sapiens); assay: Displacement of [3H]-colchicine from tubulin (unknown origin) at 5 uM after 10 mins by turbidimetrically relative to control; assay type: protein-complex assay
[17] = test system: NCI-H460; assay: Antiproliferative activity against human NCI-H460 cells after 3 days by fluorescence assay; assay type: functional; conditions: NCI-H460, 72 h
[18] = test system: NCI-H226; assay: Antiproliferative activity against human NCI-H226 cells after 3 days by fluorescence assay; assay type: functional; conditions: NCI-H226, 72 h
[19] = test system: HL-60(TB); assay: Antiproliferative activity against human HL-60(TB) cells after 3 days by fluorescence assay; assay type: functional; conditions: HL-60, 72 h
[20] = Antiproliferative activity against human COLO205 cells after 3 days by fluorescence assay; assay type: functional; conditions: COLO 205, 72 h
[21] = test system: SK-MEL-28; assay: Antiproliferative activity against human SK-MEL-28 cells after 3 days by fluorescence assay; assay type: functional; conditions: SK-MEL-28, 72 h
[22] = test system: T47D; assay: Antiproliferative activity against human T47D cells after 3 days by fluorescence assay; assay type: functional; conditions: 72 h
[23] = target: T1, Tubulin (Homo sapiens); assay: Displacement of [3H]-colchicine from tubulin (unknown origin) at 50 uM after 10 mins by turbidimetrically relative to control; assay type: protein-complex assay
[24] = test system: Malme-3M; assay: Antiproliferative activity against human MALME-3M cells after 3 days by fluorescence assay; assay type: functional; conditions: 72 h
[25] = test system: NCI-H322M; assay: Antiproliferative activity against human NCI-H322M cells after 3 days by fluorescence assay; assay type: functional; conditions: 72 h
[26] = Antiproliferative activity against human BT549 cells after 3 days by fluorescence assay; assay type: functional; conditions: BT-549, 72 h
[27] = test system: SW-620; assay: Antiproliferative activity against human SW620 cells after 3 days by fluorescence assay; assay type: functional; conditions: SW-620, 72 h
[28] = test system: NCI-H522; assay: Antiproliferative activity against human NCI-H522 cells after 3 days by fluorescence assay; assay type: functional; conditions: NCI-H522, 72 h
[29] = Antiproliferative activity against human Hs 578T cells after 3 days by fluorescence assay; assay type: functional; conditions: 72 h
[30] = Antiproliferative activity against human LOXIMVI cells after 3 days by fluorescence assay; assay type: functional; conditions: LOX IMVI, 72 h
[31] = Antiproliferative activity against human HCT116 cells after 3 days by fluorescence assay; assay type: functional; conditions: HCT-116, 72 h
[32] = test system: ACHN; assay: Antiproliferative activity against human ACHN cells after 3 days by fluorescence assay; assay type: functional; conditions: 72 h
[33] = test system: TK-10; assay: Antiproliferative activity against human TK10 cells after 3 days by fluorescence assay; assay type: functional; conditions: TK-10, 72 h
[34] = Antiproliferative activity against human OVCAR4 cells after 3 days by fluorescence assay; assay type: functional; conditions: OVCAR-4, 72 h
[35] = test system: MDA-MB-468; assay: Antiproliferative activity against human MDA-MB-468 cells after 3 days by fluorescence assay; assay type: functional; conditions: MDA-MB-468, 72 h
[36] = test system: M14; assay: Antiproliferative activity against human M14 cells after 3 days by fluorescence assay; assay type: functional; conditions: M14, 72 h
[37] = test system: SK-MEL-5; assay: Antiproliferative activity against human SK-MEL-5 cells after 3 days by fluorescence assay; assay type: functional; conditions: SK-MEL-5, 72 h
[38] = test system: MDA-MB-435; assay: Antiproliferative activity against human MDA-MB-435 cells after 3 days by fluorescence assay; assay type: functional; conditions: MDA-MB-435, 72 h
[39] = test system: K562; assay: Antiproliferative activity against human K562 cells after 3 days by fluorescence assay; assay type: functional; conditions: K562, 72 h
[40] = test system: NCI-H23; assay: Antiproliferative activity against human NCI-H23 cells after 3 days by fluorescence assay; assay type: functional; conditions: NCI-H23, 72 h
[41] = Antiproliferative activity against human OVCAR5 cells after 3 days by fluorescence assay; assay type: functional; conditions: OVCAR-5, 72 h
[42] = Antiproliferative activity against human UACC62 cells after 3 days by fluorescence assay; assay type: functional; conditions: UACC-62, 72 h
[43] = test system: CCRF-CEM; assay: Antiproliferative activity against human CCRF-CEM cells after 3 days by fluorescence assay; assay type: functional; conditions: 72 h
[44] = test system: SN12C; assay: Antiproliferative activity against human SN12C cells after 3 days by fluorescence assay; assay type: functional; conditions: 72 h
[45] = test system: IGROV-1; assay: Antiproliferative activity against human IGROV1 cells after 3 days by fluorescence assay; assay type: functional; conditions: IGROV-1, 72 h
[46] = test system: SK-MEL-2; assay: Antiproliferative activity against human SK-MEL-2 cells after 3 days by fluorescence assay; assay type: functional; conditions: SK-MEL-2, 72 h
[47] = test system: U-251; assay: Antiproliferative activity against human U251 cells after 3 days by fluorescence assay; assay type: functional; conditions: U-251, 72 h
[48] = Antiproliferative activity against human PC3 cells after 3 days by fluorescence assay; assay type: functional; conditions: PC-3, 72 h
[49] = test system: SF-268; assay: Antiproliferative activity against human SF268 cells after 3 days by fluorescence assay; assay type: functional; conditions: SF-268, 72 h
[50] = test system: SNB-75; assay: Antiproliferative activity against human SNB75 cells after 3 days by fluorescence assay; assay type: functional; conditions: SNB-75, 72 h
[51] = test system: KM12; assay: Antiproliferative activity against human KM12 cells after 3 days by fluorescence assay; assay type: functional; conditions: KM12, 72 h
[52] = Antiproliferative activity against human UACC257 cells after 3 days by fluorescence assay; assay type: functional; conditions: UACC-257, 72 h
[53] = test system: MDA-MB-231; assay: Antiproliferative activity against human MDA-MB-231 cells after 3 days by fluorescence assay; assay type: functional; conditions: MDA-MB-231, 72 h
[54] = Antiproliferative activity against human SF295 cells after 3 days by fluorescence assay; assay type: functional; conditions: SF-295, 72 h
[55] = Antiproliferative activity against human SKOV3 cells after 3 days by fluorescence assay; assay type: functional; conditions: SK-OV-3, 72 h
[56] = Antiproliferative activity against human RPMI8226 cells after 3 days by fluorescence assay; assay type: functional; conditions: RPMI-8226, 72 h
[57] = test system: CAKI-1; assay: Antiproliferative activity against human CAKI-1 cells after 3 days by fluorescence assay; assay type: functional; conditions: CAKI-1, 72 h
[58] = Antiproliferative activity against human MOLT4 cells after 3 days by fluorescence assay; assay type: functional; conditions: MOLT-4, 72 h
[59] = Antiproliferative activity against human RXF393 cells after 3 days by fluorescence assay; assay type: functional; conditions: RXF 393, 72 h
[60] = test system: HOP-62; assay: Antiproliferative activity against human HOP62 cells after 3 days by fluorescence assay; assay type: functional; conditions: HOP-62, 72 h
[61] = Antiproliferative activity against human NCI-ADR-RES cells after 3 days by fluorescence assay; assay type: functional; conditions: 72 h
[62] = test system: DU-145; assay: as §1; assay type: functional; conditions: DU-145, 72 h; remark: listed apart in the source
[63] = Antiproliferative activity against human EKVX cells after 3 days by fluorescence assay; assay type: functional; conditions: 72 h
[64] = test system: 786-0; assay: Antiproliferative activity against human 786-0 cells after 3 days by fluorescence assay; assay type: functional; conditions: 786-0, 72 h
[65] = Antiproliferative activity against human OVCAR8 cells after 3 days by fluorescence assay; assay type: functional; conditions: OVCAR-8, 72 h
[66] = test system: SNB-19; assay: Antiproliferative activity against human SNB19 cells after 3 days by fluorescence assay; assay type: functional; conditions: SNB-19, 72 h

**Q.** With `COc1ccc(/C=C\c2cc(OC)c(OC)c(OC)c2)cc1O` [COMBRETASTATIN A4] as the compound, how does the Activity [1] read?
**A.** 82%

**Q.** What does the source list for `COc1cccc(NC(=O)N2CCC(c3nc(-c4ccc(C)cc4)no3)CC2)c1`?
**A.** GI50 [2]: 3.24 µM; GI50 [3]: 2.63 µM; GI50 [4]: 3.63 µM; GI50 [5]: 5.01 µM; GI50 [6]: 5.01 µM; GI50 [7]: 0.417 µM; GI50 [8]: 3.47 µM; GI50 [9]: 3.31 µM; GI50 [10]: 3.31 µM; GI50 [11]: 4.9 µM; inhibition [12]: 5.7%; GI50 [13]: 6.46 µM; IC50 [14]: 3 µM; GI50 [15]: 5.13 µM; inhibition [16]: 8.2%; GI50 [17]: 3.47 µM; GI50 [18]: 9.12 µM; GI50 [19]: 0.603 µM; GI50 [20]: 3.8 µM; GI50 [21]: 13.2 µM; GI50 [22]: 5.5 µM; inhibition [23]: 19%; GI50 [24]: 4.17 µM; GI50 [25]: 11.7 µM; GI50 [26]: 13.8 µM; GI50 [27]: 3.98 µM; GI50 [28]: 4.07 µM; GI50 [29]: 5.5 µM; GI50 [30]: 5.5 µM; GI50 [31]: 4.79 µM; GI50 [32]: 5.89 µM; GI50 [33]: 9.55 µM; GI50 [34]: 7.24 µM; GI50 [35]: 2.45 µM; GI50 [36]: 3.24 µM; GI50 [37]: 3.39 µM; GI50 [38]: 0.537 µM; GI50 [39]: 0.355 µM; GI50 [40]: 6.03 µM; GI50 [41]: 13.2 µM; GI50 [42]: 6.61 µM; GI50 [43]: 3.55 µM; GI50 [44]: 11 µM; GI50 [45]: 9.12 µM; GI50 [46]: 11 µM; GI50 [47]: 4.17 µM; GI50 [48]: 4.37 µM; GI50 [49]: 7.24 µM; GI50 [50]: 7.94 µM; GI50 [51]: 3.31 µM; GI50 [52]: 16.6 µM; GI50 [53]: 18.2 µM; GI50 [54]: 3.09 µM; GI50 [55]: 4.47 µM; GI50 [56]: 3.31 µM; GI50 [57]: 5.75 µM; GI50 [58]: 5.5 µM; GI50 [59]: 4.07 µM; GI50 [60]: 4.68 µM; GI50 [61]: 2.75 µM; GI50 [62]: 4.5 µM; GI50 [63]: 6.76 µM; GI50 [64]: 6.03 µM; GI50 [65]: 7.08 µM; GI50 [66]: 8.71 µM
